Laboratory results: patent US20230301933A1 (priority 2020, published 2023)
Like-named read-outs stand apart in the source and are kept apart here.

Columns and labels:
Early Stage CoViD-19 = test system: Early Stage CoViD-19
Excerpt: Subject 2, suffering early stage CoViD-19. Former professional sportsman (soccer), doesn't smoke, no alcohol, weight 75 kg. Pre-treatment history. […] Came to GP for treatment.
Treatment for four consecutive days of four subcutaneous injections as described for patient 1. First day of treatment is set as ‘Day 1’.

Virus Induced Pneumonia = test system: Virus Induced Pneumonia
Excerpt: Subject 1 was a person, weight 85 kg, pre-condition asthma. […] Pre-treatment history:
Self-treatment with Ventolin and paracetamol. […] Sixth day. […] Patient thinks that the problem is serious, and contacts GP.
Treatment started for 9 consecutive days by four subcutaneous injections of a 0.06 w/w % phenol in physiological saline daily administered in: 1 and 2) the posterior margin of the sternocleidomastoid muscle on the level of the larynx knot at both left and right side of the body, each about 1 cm deep; 3) the middle of the upper socket of the sternum about 0.5 cm deep, and 4) the depression below the spinous process of the 7th cervical vertebra, about 0.5 cm deep. First day of treatment is set as ‘Day 1’

[1] = Protocol: In an particularly attractive embodiment, the phenol is injected subcutaneously, i.e. in the soft tissue below the skin with a depth of up to 0.5-2.0 cm.
In another attractive embodiment, the phenol is administered intravenously.

MRSA Lung Infection = test system: MRSA Lung Infection
Protocol: Person, 88 kg, dyspnoea, cough, chest pain and fever, under urine catheter. Has used different antibiotic before and after operation prostate cancer and by lung infection.
Phenol reduce to 0.02% 15 ml. duration 10 minutes for 5 more days.

Flu Pneumonia = conditions: human, in vivo
Critical Stage Covid-19 = test system: Critical Stage Covid-19
Protocol: Treated with concentration phenol 0.01% in 60 ml, drip infusion 20 minutes, once daily.
Day 6 lowered dose to 0.01% concentration in 30 ml. Stopped treatment after treatment day 9.

[2] = insulin comprising 0.2 to 1.0 mg per dose phenol as preservative; cited from earlier work
[3] = Day 1 (first day of treatment), four s.c. injections 0.06 w/w % phenol daily
[4] = at end of treatment (3 days normal body temperature), phenol 0.01% drip infusion once daily
[5] = day1, phenol 0.02% (in 30 ml), drip 15 minutes
[6] = day2, phenol 0.02% (in 30 ml), drip 15 minutes
[7] = day3, phenol 0.02% (in 30 ml), drip 15 minutes
[8] = day4, phenol 0.02% (in 30 ml), drip 15 minutes
[9] = day5, phenol 0.02% (in 30 ml), drip 15 minutes
[10] = day6, phenol 0.02% (in 15 ml), drip 10 minutes
[11] = day7, phenol 0.02% (in 15 ml), drip 10 minutes
[12] = day8, phenol 0.02% (in 15 ml), drip 10 minutes
[13] = day9, phenol 0.02% (in 15 ml), drip 10 minutes

For `Oc1ccccc1` [phenol], the Temperature (Early Stage CoViD-19; [3]) was 38.4 °C, the Temperature (Early Stage CoViD-19; Day 2) was 37.2 °C and the Temperature (Early Stage CoViD-19; Day 3) was 36.8 °C. For the same compound, the Temperature (Early Stage CoViD-19; Day 4) was “normal”, the Temperature (Early Stage CoViD-19; Day 5) was “normal” and the “Duration of slight headache after treatment” value (Early Stage CoViD-19; after first treatment) was “about four”. The “Time the slight cough remained” value (Early Stage CoViD-19; counted from Day 5, then fully gone) was 5 days, the Side effects (Early Stage CoViD-19; four consecutive days of s.c. injections) was “No other side effects noted” and the Injection location reaction (Early Stage CoViD-19; s.c. injection) was “slight pain at injection”. For the same compound, the “Side effects after injection” value (Virus Induced Pneumonia; 9 consecutive days of s.c. injections) was “slight headache, no other side effect after injection”, the Temperature (Virus Induced Pneumonia; [3]) was 38.1 °C and the Short breath (Virus Induced Pneumonia; Day 2) was “Limited feeling of short breath and asthma”. The Temperature (Virus Induced Pneumonia; Day 2, four s.c. injections 0.06 w/w % phenol daily) was 37.6 °C, the Short breath (Virus Induced Pneumonia; Day 3) was “Less short breath” and the Temperature (Virus Induced Pneumonia; Day 3) was 37.4 °C. The Short breath (Virus Induced Pneumonia; Day 4) was “Short breath much better”, the Temperature (Virus Induced Pneumonia; Day 4) was 37.4 °C and the Short breath (Virus Induced Pneumonia; Day 5) was “Short breath slightly better”. For the same compound, the Temperature (Virus Induced Pneumonia; Day 5) was 37.4 °C, the Short breath (Virus Induced Pneumonia; Day 6) was “No more short breath” and the Temperature (Virus Induced Pneumonia; Day 6) was 37.0 °C. The Breathing (Virus Induced Pneumonia; Day 7) was “Breathing normal”, the Fever (Virus Induced Pneumonia; Day 7) was “No fever” and the Fever (Virus Induced Pneumonia; Day 8) was “No fever”. The “Duration of immediate effect” value ([1]; intravenous administration) was 7 to 14 days, the “Time phenol may remain in the body” value ([1]; intravenous administration) was “about 24 hours” and the “Duration of immediate effect” value ([1]; subcutaneous injection) was “about 7 days”. For the same compound, the “Time phenol may remain in the body” value ([1]; subcutaneous injection) was “about 24 hours”, the “X-lung: pneumonia” value (MRSA Lung Infection; Day 18th) was “almost recovered” and the “Fever (temperature), reduced from 38.0” value (MRSA Lung Infection; after 0.02% phenol 30 ml infusion once per day for 3 days) was 37.4 °C. The Temperature (MRSA Lung Infection; during 0.02% phenol 15 ml, 10 minutes, for 5 more days) was “under 37 °C”, the Breathing (Flu Pneumonia) was “breaths quietly” and the Patient outcome (Flu Pneumonia) was “physical recovered with some cough”. For the same compound, the X-lung infiltrate (Flu Pneumonia) was “much improved”, the “Fever (temperature)” value (Flu Pneumonia; iv) was 36.8-37.5 °C and the Heartbeat (Flu Pneumonia; iv) was “about 90 per minute”. For the same compound, the R/R (Critical Stage Covid-19; [4]) was 20, the SPO2 (Critical Stage Covid-19; [4]) was 97% and the R/R (Critical Stage Covid-19; [5]) was 41. It also gave a SpO2 (Critical Stage Covid-19; [5]) of 91%, a body temperature (Critical Stage Covid-19; [5]) of 37.6 °C and a R/R (Critical Stage Covid-19; [6]) of 32. For the same compound, the SpO2 (Critical Stage Covid-19; [6]) was 93%, the body temperature (Critical Stage Covid-19; [6]) was 38.6 °C and the R/R (Critical Stage Covid-19; [7]) was 27. It also gave a SpO2 (Critical Stage Covid-19; [7]) of 94%, a body temperature (Critical Stage Covid-19; [7]) of 38.5 °C and a R/R (Critical Stage Covid-19; [8]) of 23. The SpO2 (Critical Stage Covid-19; [8]) was 96%, the body temperature (Critical Stage Covid-19; [8]) was 38.0 °C and the R/R (Critical Stage Covid-19; [9]) was 22. The SpO2 (Critical Stage Covid-19; [9]) was 96%, the body temperature (Critical Stage Covid-19; [9]) was 37.4 °C and the “day 6 evaluation: breathing” value (Critical Stage Covid-19; day 6) was “day 6 evaluation patient breaths normally, still stress, coughing, feels good, day 6 started walking (with infusion)”. The “temperature, R/R, SpO2” value (Critical Stage Covid-19; day 6) was “normal”, the R/R (Critical Stage Covid-19; [10]) was 20 and the SpO2 (Critical Stage Covid-19; [10]) was 97%. It also gave a body temperature (Critical Stage Covid-19; [10]) of 37.0 °C, a R/R (Critical Stage Covid-19; [11]) of 20 and a SpO2 (Critical Stage Covid-19; [11]) of 97%. The body temperature (Critical Stage Covid-19; [11]) was 36.8 °C, the R/R (Critical Stage Covid-19; [12]) was 20 and the SpO2 (Critical Stage Covid-19; [12]) was 97%. For the same compound, the body temperature (Critical Stage Covid-19; [12]) was 36.9 °C, the “day 9 evaluation: body temperature” value (Critical Stage Covid-19; day 9) was “day 9 evaluation patients three days normal body temperature” and the R/R (Critical Stage Covid-19; [13]) was 18. The SpO2 (Critical Stage Covid-19; [13]) was 97%, the body temperature (Critical Stage Covid-19; [13]) was 36.8 °C and the “Time after start of treatment at which improvement of R/R and SpO2 was measured” value (Critical Stage Covid-19; drip infusion once daily) was 6 h. For the same compound, the “Accumulation of phenol in the body by daily use” value [2] was “no significant accumulation”.
